Measured values reported in patent publication US12544372B2, “Methods of treating rheumatoid arthritis, chronic spontaneous urticaria, and systemic lupus erythematosis using an inhibitor of Bruton's tyrosine kinase” (Genentech, Inc., priority 2019, dated 2026).
Marks after values point to notes of the source that are not given here.

Key:
Format in all cases: in vivo, human
Total IgM = assay: RA study biomarker: total IgM
Procedure: (§1) […] The biomarkers evaluated in this assessment were chemokine [C-C motif] ligand 4 (CCL4), IL-6, and TNF-like cytokine 1A (TL1A). Total IgM, IgG, rheumatoid factor IgM autoantibody (RF), CCL4, TL1A, IL-6, and anti-CCP autoantibody (ACPA IgG) levels were analyzed with immunoassays. CD19^+ B cells and CD3^+ T cells were measured by flow cytometry. The proportion of patients achieving an ACR50 response at week 12 and the change in DAS28 score by week 12 were assessed relative to seropositivity (RF and/or ACPA positive at baseline) or baseline levels of RF in both cohorts. To select which biomarkers to evaluate in this trial, BTK-dependent myeloid biomarkers were identified using peripheral blood CD14^+ monocytes stimulated with immune-complexes in the presence or absence of a BTK inhibitor. In brief, the expression levels of genes in human monocytes were assayed under conditions of no stimulation; with human serum albumin immune complex stimulation; with stimulation and a low concentration of a BTK inhibitor with similar characteristics to fenebrutinib; or with stimulation and a high concentration of the BTK inhibitor. […] Genes annotated with cytokine activity were selected. The color bar represents normalized gene expression.

C4 = assay: SLE study biomarker: C4
Procedure: The following biomarkers were explored according to the biomarker objectives provided above in the Study Objectives. In Table 13, biomarkers are measured at baseline and subsequent timepoints during and after treatment. One set of biomarkers evaluated is the plasmablast signature. Plasmablasts are rapidly dividing, short-lived antibody secreting cells. While they represent a small proportion of B cells in the blood, they are responsible for a majority of antibody transcripts found in whole blood mRNA. The plasmablast signature comprises the biomarkers IgJ, Mzbl, and Txndc5. The gene expression of IgJ, Mzbl, and Txndc5 may be measured, for example, a polypeptide expression by evaluating the level of mRNA for said gene in a patient's blood relative to a reference level.

Total IgG = assay: RA study biomarker: total IgG
Procedure: as §1

ACPA IgG = assay: RA study biomarker: ACPA IgG
Procedure: Biomarkers were evaluated in serum or plasma samples at baseline and weeks 1, 4, and 12 in patients with available samples (cohort 1: n=438; cohort 2: n=86). The biomarkers evaluated in this assessment were chemokine [C-C motif] ligand 4 (CCL4), IL-6, and TNF-like cytokine 1A (TL1A). Total IgM, IgG, rheumatoid factor IgM autoantibody (RF), CCL4, TL1A, IL-6, and anti-CCP autoantibody (ACPA IgG) levels were analyzed with immunoassays. CD19^+ B cells and CD3^+ T cells were measured by flow cytometry. The proportion of patients achieving an ACR50 response at week 12 and the change in DAS28 score by week 12 were assessed relative to seropositivity (RF and/or ACPA positive at baseline) or baseline levels of RF in both cohorts. To select which biomarkers to evaluate in this trial, BTK-dependent myeloid biomarkers were identified using peripheral blood CD14^+ monocytes stimulated with immune-complexes in the presence or absence of a BTK inhibitor. In brief, the expression levels of genes in human monocytes were assayed under conditions of no stimulation; with human serum albumin immune complex stimulation; with stimulation and a low concentration of a BTK inhibitor with similar characteristics to fenebrutinib; or with stimulation and a high concentration of the BTK inhibitor. […] Genes annotated with cytokine activity were selected. The color bar represents normalized gene expression.

CCL4 = assay: RA study biomarker: CCL4 (immunoassay)
Procedure: as §1

[1] = cohort 1, 200 mg twice daily, by week 12
[2] = cohort 2, 200 mg twice daily, by week 12

For `C[C@H]1CN(C2COC2)CCN1c1ccc(Nc2cc(-c3ccnc(N4CCn5c(cc6c5CC(C)(C)C6)C4=O)c3CO)cn(C)c2=O)nc1` [fenebrutinib, (S)-2-(3′-(hydroxymethyl)-1-methyl-5-((5-(2-methyl-4-(oxetan-3-yl)piperazin-1-yl)pyridin-2-yl)amino)-6-oxo-1,6-dihydro-[3,4′-bipyridin]-2′-yl)-7,7-dimethyl-2,3,4,6,7,8-hexahydro-1H-cyclopenta[4,5]pyrrolo[1,2-a]pyrazin-1-one], the “Total IgM Reduction as % of Baseline” value (Total IgM; Cohort 1, 50 mg QD, Week 4) was 94%, the “Total IgM Reduction as % of Baseline” value (Total IgM; Cohort 1, 50 mg QD, Week 8) was 91%* and the “Total IgM Reduction as % of Baseline” value (Total IgM; Cohort 1, 50 mg QD, Week 12) was 88%*. For the same compound, the “Total IgM Reduction as % of Baseline” value (Total IgM; Cohort 1, 150 mg QD, Week 4) was 91%*, the “Total IgM Reduction as % of Baseline” value (Total IgM; Cohort 1, 150 mg QD, Week 8) was 88%* and the “Total IgM Reduction as % of Baseline” value (Total IgM; Cohort 1, 150 mg QD, Week 12) was 86%*. For the same compound, the “Total IgM Reduction as % of Baseline” value (Total IgM; Cohort 1, 200 mg BID, Week 4) was 92%*, the “Total IgM Reduction as % of Baseline” value (Total IgM; Cohort 1, 200 mg BID, Week 8) was 86%* and the “Total IgM Reduction as % of Baseline” value (Total IgM; Cohort 1, 200 mg BID, Week 12) was 84%*. For the same compound, the “Total IgM absolute reduction relative to placebo” value (Total IgM; [1]) was -22 mg/dL, the “Total IgM reduction relative to placebo” value (Total IgM; [2]) was -17 mg/dL and the “C4, Median Change from Baseline at Week 48” value (C4; 150 mg QD) was “+0.02* g/L”. For the same compound, the “C4, Median Change from Baseline at Week 48” value (C4; 200 mg BID) was “+0.01* g/L”, the “Total IgG Reduction as % of Baseline” value (Total IgG; Cohort 1, 150 mg QD, Week 4) was 97%* and the “Total IgG Reduction as % of Baseline” value (Total IgG; Cohort 1, 150 mg QD, Week 8) was 94%*. For the same compound, the “Total IgG Reduction as % of Baseline” value (Total IgG; Cohort 1, 150 mg QD, Week 12) was 95%*, the “Total IgG Reduction as % of Baseline” value (Total IgG; Cohort 1, 200 mg BID, Week 4) was 95%* and the “Total IgG Reduction as % of Baseline” value (Total IgG; Cohort 1, 200 mg BID, Week 8) was 92%*. The “Total IgG Reduction as % of Baseline” value (Total IgG; Cohort 1, 200 mg BID, Week 12) was 93%*, the “IgG absolute reduction relative to placebo” value (Total IgG; [1]) was -115 mg/dL and the “IgG reduction relative to placebo” value (Total IgG; [2]) was -101 mg/dL. The “ACPA IgG levels relative to placebo” value (ACPA IgG; cohort 1) was “not significantly changed relative to placebo”, the “ACPA IgG levels change” value (ACPA IgG; cohort 2, 200 mg twice daily, by week 12 (+15% in the placebo group)) was −24% and the “CCL4 Reduction as % of Baseline” value (CCL4; Cohort 1, 50 mg QD, Week 2) was 78%*. The “CCL4 Reduction as % of Baseline” value (CCL4; Cohort 1, 50 mg QD, Week 4) was 84%*, the “CCL4 Reduction as % of Baseline” value (CCL4; Cohort 1, 50 mg QD, Week 12) was 78%* and the “CCL4 Reduction as % of Baseline” value (CCL4; Cohort 1, 150 mg QD, Week 2) was 73%*. For the same compound, the “CCL4 Reduction as % of Baseline” value (CCL4; Cohort 1, 150 mg QD, Week 4) was 79%*, the “CCL4 Reduction as % of Baseline” value (CCL4; Cohort 1, 150 mg QD, Week 12) was 86%* and the “CCL4 Reduction as % of Baseline” value (CCL4; Cohort 1, 200 mg BID, Week 2) was 71%*. The “CCL4 Reduction as % of Baseline” value (CCL4; Cohort 1, 200 mg BID, Week 4) was 74%*, the “CCL4 Reduction as % of Baseline” value (CCL4; Cohort 1, 200 mg BID, Week 12) was 76%* and the “CCL4 reduction relative to placebo” value (CCL4; cohort 1, 200 mg twice daily, largest reduction) was −28%. For the same compound, the “CCL4 levels compared to placebo” value (CCL4; cohorts 1 and 2, all doses, by week 1) was “reduced CCL4 levels”.
